Where two headings read alike, the source gives them in different places.
What was measured:
[1] = test system: acetylated α-tubulin (AcTub) levels in QBI293 cells; experiment: QBI293 cell assay of MT stabilization: acetylated α-tubulin ELISA; type: cell-based
Procedure: (§1) All test compounds were initially screened in the same cell-based (QBI293) assay of MT stabilization used in our previous SAR studies[11],[12] so as to allow direct comparison with literature data. Changes in levels of acetylated α-tubulin (AcTub) and total α-tubulin (α-Tub), relative to vehicle-treated negative control cells, were determined after 4 h of incubation with test compounds at 1 and 10 μM. To account for possible day-to-day differences in the responsiveness of cells to MT-stabilizing treatment, compound-dependent changes in AcTub levels relative to DMSO-treated cells were also normalized to the corresponding changes caused by 100 nM of 5 that was used as a positive control. In addition, docking studies, binding free energy calculations, and in selected cases, molecular dynamic simulations were conducted using an X-ray structure of the vinca and seventh sites (PDB: 5NJH,[10]7CLD[13]). […] For selected compounds, additional studies included testing in the QBI293 cell AcTub assay at additional compound concentrations, and/or evaluation of test compounds for their ability to prevent MT collapse in primary neuron cultures treated with the phosphatase inhibitor, okadaic […] (OA). Finally, cytotoxicity studies in QBI293 and HeLa cells were also conducted for representative examples (Supporting Information).
(§2) Compound-induced changes in acetylated-tubulin and α-tubulin in QBI293 cells or primary mouse or rat neurons were as previously described.[11],[12] […] The plated cells were incubated overnight, after which the medium was aspirated and fresh medium containing vehicle (0.25–0.3% DMSO) or test compound was added. Test compounds were prepared as 4–20 mM stock solutions in 100% DMSO, and these were diluted in culture medium prior to addition to the QBI293 cells. After 4 h incubation, whole-cell extracts were prepared from the QBI293 cells as described[11] and the supernatant fraction from each sample was assessed for protein content by bicinchoninic acid (BCA) assay. The amount of acetyl-tubulin (AcTub) and α-tubulin (αTub) within the cell extract samples was quantified using specific enzyme-linked immunosorbent assays (ELISA), as previously described.[11] Acetyl-tubulin levels were determined in a similar manner in rat or mouse cortical neuron cultures in which embryonic dissociated cortical neurons were plated at 3 × 10^5 cells/well in poly-D-lysine-coated 12-well plates, essentially as previously described.[11] […] Culture homogenates were prepared for the determination of AcTub levels by ELISA as previously described.[11]

[2] = test system: total α-tubulin (α-Tub) levels in QBI293 cells; experiment: QBI293 cell assay: total α-tubulin ELISA; type: cell-based
Procedure: as §1, §2

[3] = 4 h, 1 uM compound, read-out: AcTub (1uM)
[4] = 4 h, 10 uM compound, read-out: AcTub (10 uM)
[5] = 4 h incubation, 1 μM, read-out: AcTub 1 μM, fold-change compared to vehicle (DMSO)-treated cells
[6] = 4 h incubation, 10 μM, read-out: AcTub 10 μM, fold-change compared to vehicle (DMSO)-treated cells
[7] = 4 h, 1 uM compound, read-out: AlfaTub (1uM)
[8] = 4 h, 10 uM compound, read-out: AlfaTub (10 uM)
[9] = 4 h incubation, 1 μM, read-out: α-Tub 1 μM, fold-change compared to vehicle (DMSO)-treated cells
[10] = 4 h incubation, 10 μM, read-out: α-Tub 10 μM, fold-change compared to vehicle (DMSO)-treated cells

SMILES	AcTub (1 uM - normalized) ([1]; 1 uM compound)	AcTub (10 uM - normalized) ([1]; 10 uM compound)	fold induction at 1 µM [1, 3]	fold induction at 10 µM [1, 4]	AcTub 1 μM, fold-change compared to positive control compound 5 (100 nM) (in parentheses) ([1]; 4 h incubation, 1 μM) [fold-change]	fold induction at 1 µM [1, 5]	AcTub 10 μM, fold-change compared to positive control compound 5 (100 nM) (in parentheses) ([1]; 4 h incubation, 10 μM) [fold-change]	fold induction at 10 µM [1, 6]	fold induction at 1 µM [2, 7]	fold induction at 10 µM [2, 8]	fold induction at 1 µM [2, 9]	fold induction at 10 µM [2, 10]	total α-Tub at higher (30 μM) concentration ([2]; 4 h, 30 μM)
CN(C)CCCOc1cc(F)c(-c2c(Cl)nc3ncnn3c2NCC2(C(F)(F)F)CC2)c(F)c1 [Compound 29, 5-Chloro-6-(4-(3-(dimethylamino)propoxy)-2,6-difluorophenyl)-N-((1-(trifluoromethyl)cyclopropyl)methyl)-[1,2,4]triazolo[1,5-a]pyrimidin-7-amine]	0.63	0.14	3.75	0.81	0.63	3.75 ± 0.13	0.14	0.81 ± 0.09	0.82	1.24	0.82 ± 0.01	1.24 ± 0.13	–
C#Cc1cc(F)c(-c2c(Cl)nc3ncnn3c2N[C@H](C)C(C)C)c(F)c1 [Compound 34, (R)-5-Chloro-6-(4-ethynyl-2,6-difluorophenyl)-N-(3-methylbutan-2-yl)-[1,2,4]triazolo[1,5-a]pyrimidin-7-amine]	0.39	0.88	3.56	8.02	0.39	3.56 ± 0.27	0.88	8.02 ± 0.25	0.98	1.03	0.98 ± 0.002	1.03 ± 0.008	–
Fc1cc(F)c(-c2c(Cl)nc3ncnn3c2NCC2CCC2)c(F)c1 [Compound 15, 5-Chloro-N-(cyclobutylmethyl)-6-(2,4,6-trifluorophenyl)-[1,2,4]triazolo[1,5-a]pyrimidin-7-amine]	0.22	0.44	1.55	3.08	0.22	1.55 ± 0.03	0.44	3.08 ± 0.03	1.07	0.96	1.07 ± 0.01	0.96 ± 0.03	–
C[C@H](Nc1c(-c2c(F)cc(C#CCCN(C)C)cc2F)c(Cl)nc2ncnn12)C(F)(F)F [Compound 44, (S)-5-Chloro-6-(4-(4-(dimethylamino)but-1-yn-1-yl)-2,6-difluorophenyl)-N-(1,1,1-trifluoropropan-2-yl)-[1,2,4]triazolo[1,5-a]pyrimidin-7-amine]	2.01	1.17	10.9	6.33	2.01	10.9 ± 0.24	1.17	6.33 ± 0.22	0.77	0.93	0.77 ± 0.04	0.93 ± 0.03	–
CC(C)[C@@H](C)Nc1c(-c2c(F)cc(C#CCN(C)C)cc2F)c(Cl)nc2ncnn12 [Compound 47, (R)-5-Chloro-6-(4-(3-(dimethylamino)prop-1-yn-1-yl)-2,6-difluorophenyl)-N-(3-methylbutan-2-yl)-[1,2,4]triazolo[1,5-a]pyrimidin-7-amine]	0.40	1.4	2.21	7.7	0.40	2.21 ± 0.6	1.40	7.68 ± 0.85	0.98	1.03	0.98 ± 0.04	1.03 ± 0.04	–
CC(C)[C@@H](C)Nc1c(-c2c(F)cc(C#CCCN(C)C)cc2F)c(Cl)nc2ncnn12 [Compound 52, (R)-5-Chloro-6-(4-(4-(dimethylamino)but-1-yn-1-yl)-2,6-difluorophenyl)-N-(3-methylbutan-2-yl)-[1,2,4]triazolo[1,5-a]pyrimidin-7-amine 2,2,2-Trifluoroacetate]	1.75	1.24	9.5	6.7	1.75	9.5 ± 0.22	1.24	6.7 ± 0.5	1	1.15	1 ± 0.02	1.15 ± 0.02	–
CN(C)CCCOc1cc(F)c(-c2c(Cl)nc3ncnn3c2NCC2(C)CC2)c(F)c1 [Compound 28, 5-Chloro-6-(4-(3-(dimethylamino)propoxy)-2,6-difluorophenyl)-N-((1-methylcyclopropyl)methyl)-[1,2,4]triazolo[1,5-a]pyrimidin-7-amine]	0.53	0.09	2.81	0.49	0.53	2.81 ± 0.35	0.09	0.49 ± 0.03	0.84	1.1	0.84 ± 0.12	1.1 ± 0.2	–
C[C@@H](Nc1c(-c2c(F)cc(F)cc2F)c(Cl)nc2ncnn12)C1CC1 [Compound 17, (R)-5-Chloro-N-(1-cyclopropylethyl)-6-(2,4,6-trifluorophenyl)-[1,2,4]triazolo[1,5-a]pyrimidin-7-amine]	0.19	0.4	1.95	3.99	0.19	1.95 ± 0.18	0.40	3.99 ± 0.1	1.06	1.16	1.06 ± 0.07	1.16 ± 0.02	–
CN(C)CCCOc1cc(F)c(-c2c(Cl)nc3ncnn3c2NCC(C)(C)C)c(F)c1 [Compound 26, 5-Chloro-6-(4-(3-(dimethylamino)propoxy)-2,6-difluorophenyl)-N-neopentyl-[1,2,4]triazolo[1,5-a]pyrimidin-7-amine]	1.12	0.1	5.98	0.52	1.12	5.98 ± 0.11	0.10	0.52 ± 0.07	0.67	0.73	0.69 ± 0.03	0.73 ± 0.07	–
C[C@H](Nc1c(-c2c(F)cc(C#CCCCO)cc2F)c(Cl)nc2ncnn12)C(F)(F)F [Compound 43, (S)-5-(4-(5-Chloro-7-((1,1,1-trifluoropropan-2-yl)amino)-[1,2,4]triazolo[1,5-a]pyrimidin-6-yl)-3,5-difluorophenyl)pent-4-yn-1-ol]	2.29	1.93	17.1	14.4	2.29	17.1 ± 0.5	1.93	14.4 ± 0.6	0.93	0.87	0.93 ± 0.02	0.87 ± 0.03	reduction in total tubulin levels could be detected only at higher concentrations
